The values below come from publication PMC6614805 (2019).

The term KD denotes the equilibrium constant for the complex coming apart. High values mean lower affinity, low ones higher affinity.

The structures appear in SMILES notation.

The subject of one assay is SCA2.1 (DNA, aptamer) CTTACGACCTTAAGTGGGGTTCGGGTGGAGTTTATGGGGTCGTAAG
Briefly: Cy7 displacement, absorbance A670/A775. As to conditions: Cy7 (2 µM) displaced from 3 µM SCA2.1; 50 µM compound.
As to `CCCC(C(=O)c1ccc2ccccc2c1)N1CCCC1` (stereo not drawn), the binding entry is recorded as “yes”. `CCCC(NC)C(=O)c1ccc2c(c1)OCO2` (stereo not drawn): the binding result was “yes”.

For the compound `CNC(C)C(=O)c1ccc(C)cc1` (stereo not drawn), the binding result is on record as “yes”.

Regarding `CNC(C)C(=O)c1ccc(F)cc1` (stereo not drawn), the binding entry is reported as “yes”. With `CNC(C)C(=O)c1ccc2c(c1)OCO2` (stereo not drawn), the binding result is reported as “yes”. Same read-out and setting: the value for `CNC(C)C(=O)c1cccc(F)c1` (stereo not drawn) was “yes”.

`CNC(C)C(=O)c1ccccc1` (stereo not drawn): the binding entry is reported as “yes”.

In the case of `C[C@H](N)C(=O)c1ccccc1`, the binding result is listed as “yes”.

Staying with this assay, now noted: Cy7 (2 µM) displaced from 3 µM SCA2.1; highest concentration tested 50 µM.
Take `CC(=O)Nc1ccc(O)cc1`: the binding result is on record as “no”.

Take `CCN(CC)CC(=O)Nc1c(C)cccc1C`: the binding entry is “no”. `CCOC(=O)c1ccc(N)cc1`: the binding entry is given as “no”.

Consider `CN[C@@H](C)[C@@H](O)c1ccccc1`, for which the binding entry is reported as “no”. Consider `Cn1c(=O)c2c(ncn2C)n(C)c1=O`, for which the binding result is recorded as “no”. For `OC[C@H]1O[C@@](CO)(O[C@H]2O[C@H](CO)[C@@H](O)[C@H](O)[C@H]2O)[C@@H](O)[C@@H]1O`, the binding result was “no”.

For the next assay the test system is unchanged. Briefly: absorbance titration at 775 nm. Particulars: 20 mM NaCl, 0.5 mM MgCl2; 10 mM Tris-HCl pH 7.4, 0.01% Tween 20, 1% DMSO, room temperature; 2 µM Cy7.
In turn, `CCN1C(=CC=CC=CC=Cc2sc3ccccc3[n+]2CC)Sc2ccccc21` registered a KD of 1600 nM. In other words, the single-digit micromolar range.

The test system is the same in another assay. In words: ITC. Particulars: 20 mM NaCl, 0.5 mM MgCl2; 10 mM Tris-HCl pH 7.4, 23 °C; pure enantiomer, one-site model.
Compound `CCCC(C(=O)c1ccc2c(c1)OCO2)N1CCCC1` (stereo not drawn) gave a KD of 3610 ± 120 nM.

As for `CCC[C@H](C(=O)c1ccc2c(c1)OCO2)N1CCCC1`, the KD is reported as 46.5 ± 7.5 nM.

The assay is the same for the next values; noted with them: 20 mM NaCl, 0.5 mM MgCl2; 10 mM Tris-HCl pH 7.4, 23 °C; racemate, modified two-site model; site 1 of 2 (one enantiomer).
With `CCC(NC)C(=O)c1ccc2c(c1)OCO2` (racemic), the KD1 was 0.16 ± 0.05 µM.

With `CCCC(C(=O)c1ccc2c(c1)OCO2)N1CCCC1` (racemic), the KD1 was found to be 0.0175 ± 0.0164 µM. On the same count and under the same terms, then `CCCC(C(=O)c1ccccc1)N1CCCC1` (racemic), with 0.09 ± 0.02 µM; and `CCNC(C)C(=O)c1ccc2c(c1)OCO2` (racemic), with 0.10 ± 0.03 µM.
